One data set has as its target T1, MMP-9 enzyme (Homo sapiens, UniProt P14780).
T1 construct: purchased Enzo Life Sciences Inc. (Farmingdale, NY, USA)
The data set can be described thus: MMP-9 enzyme inhibition, colorimetric kit. It is filed as biochemical. The following applies: compounds at 100 μM, mean ± SD. The procedure:
Compounds (2a–2o) were tested to determine their MMP-9 enzyme inhibition potential. The compounds were tested at a concentration of 100 μM, and the standard molecule NNGH at a concentration of 1.3 μM.
MMP-9 inhibition was assessed using a colorimetric kit from Enzo Life Sciences Inc. (Farmingdale, NY, USA), following procedures similar to those described in previous studies.[25],[26] A thiopeptide was used as a chromogenic substrate (Ac-PLG-[2-mercapto-4-methyl-pentanoyl]-LG-OC2H5). 2-Nitro-5-thiobenzoic acid, formed by the reaction of the sulfhydryl group produced as a result of hydrolysis of the thioester by the MMP-9 enzyme and then reaction with DTNB [5,5′-dithiobis(2-nitrobenzoic acid), Ellman’s reagent], gives absorbance at 412 nm in a microplate reader (BioTek, PowerWave, Gen5 software, Winooski, VT, USA). Based on these absorptions, MMP-9 inhibition concentrations were determined. The assays were performed in triplicate. NNGH (N-isobutyl-N-(4-methoxyphenylsulfonyl)glycyl hydroxamic acid) was used as a control inhibitor. Data were shown as mean ± SD. The inhibitor % remaining activity of MMPs was calculated using the following equation:
Inhibitor% activity remaining = (V inhibitor/V control) × 100.
The inhibition (percent) of MMPs was calculated using the following equation: [drawing 1]

Data set [1] has as its system A549 lung cancer cell line. Kind of data set: MTT cytotoxicity assay on A549 lung cancer cells. The data set is classed as cell-based, human. The following applies: Homo sapiens; A549 cells, MTT, mean ± SD. The procedure: (§1) The synthesized final compounds (2a–2o) were initially evaluated for their cytotoxic effects to assess their anticancer activity against A549 lung cancer cells. The healthy cell line L929 (mouse fibroblast cell line) was also used to determine the selective antiproliferative properties of the compounds.
(§2) The human lung cancer cell line A549 and mouse fibroblast cell line L929 were used to evaluate the cytotoxicity of the compounds. Cells propagated under the specified conditions were cultured in 96-well plates at 5 × 10^3 cells/well. […] At the end of the incubation period, cell viability was determined by measuring the absorbance of the purple color formed by the breakdown of the MTT dye at 540 nm. Half-maximal inhibitory concentrations (IC50) were determined based on the tested concentrations of the compounds. The tests were triplicated.[38] The MTT assay for cytotoxicity of compounds was determined according to previously published procedures.[39],[40]
(§3) The concentration that inhibits 50% of the cell population was calculated as IC50 using GraphPad Prism 9.0 statistical software program, and standard deviation values were analyzed. Data are expressed as mean ± SD. Comparisons were made using one-way ANOVA for continuous variables with normal distribution, and Tukey’s test was used for post hoc analysis of group differences. p < 0.05 was considered statistically significant.
(§4) The cell viability value of the control group was considered 100%, and all viability values were calculated using the formula below. The experiment was performed in 3 replicates. [drawing 2]
(Formazan colour is commonly taken as a measure of viable cells.)

A further data set has as its system caspase-3 in A549 cells. Kind of data set: Caspase-3 activation. It is filed as cell-based, human. To be noted: 24 h. From the text: Caspases can take part in the cell death mechanism through both intrinsic and extrinsic pathways, with caspase-3 being the first enzyme activated in the apoptosis process.[24] Activation of the caspase-3 enzyme by the compounds, indicated as caspase-3 positive, and inhibition, indicated as caspase-3 negative, are presented in percentage terms in Table 5.
A Spectrofluorometric Caspase-3 assay kit (BD Pharmingen, Franklin Lakes, NJ) was used for determining Caspase-3 activation by measuring the caspase-3 or DEVD-cleaving activity. Initially, A549 cells at a concentration of 1 × 10^6 cells/mL underwent a washing process using phosphate-buffered saline (PBS). Subsequently, they were suspended in a cold solution known as cell lysis buffer and kept on ice for a duration of 30 min. […] In each reaction, a mixture of […] of diluted Ac DEVD-AMC (a synthetic tetrapeptide fluorogenic substrate used to measure caspase-3 activity) and 0.2 mL of 1x HEPES buffer was added to a well. Then, […] of cell lysate was introduced into each well/reaction. The reaction mixtures were incubated at 37 °C for 1 h. The amount of AMC released from Ac-DEVD-AMC was measured by using a microplate reader (PerkinElmer/Victor/X3) with an excitation wavelength of 380 nm and an emission wavelength of 460 nm. Apoptotic cell lysates containing active caspase-3 produced significant emissions compared to controls. In addition, the AMC emission of nonapoptotic control cell lysates was taken as 100%, and the emission of other cell lysates was measured relative to the emission of control cells. All experiments were repeated in duplicate. Active compounds, which are the most cytotoxic compounds, were evaluated for caspase-3 activation using previously published procedures.[40],[44]
(§5) The apoptotic results (Annexin V-FITC, Caspase 3, JC-1) were evaluated by flow cytometry using FACS Diva Version 6.1.1. software, and the apoptotic cells were determined as the percentage of cells.

For data set [2], the system named is A549 cells. Kind of data set: Mitochondrial membrane potential (JC-1) by flow cytometry. The data set is classed as cell-based, human. The following applies: IC50 dose, JC-1.
Text: The mitochondrial membrane potential provides information about the state of electrons during ATP production through oxidative phosphorylation, which is essential for cellular viability. Mitochondrial dysfunction occurs when this electrical regulation is disturbed and can occur in various diseases and the process of apoptosis.[23] […] Compounds 2m, 2g, and 2c followed this, with depolarization levels exceeding 21%. The mitochondrial dysfunction in compound 2m can be considered a contributing factor to apoptosis.
Cell staining with JC-1 was performed according to the manufacturer’s recommendations for the BD , Pharmingen Flow Cytometry Kit. […] Compounds were applied at IC50 doses of no more than 1 × 10^6/mL per well in 6-well plates. After treatment, each cell suspension was transferred to a 15 mL polystyrene centrifuge tube, the cells were centrifuged at 400g for 5 min, and the supernatant was removed. 0.5 mL of freshly prepared working solution was added to each pellet, and the solution was vortexed. The test cells were soaked in JC-1 working solution at 37 °C for 10–15 min, and the cells were washed twice. After centrifugation at 400g for 5 min, each cell pellet was suspended in 0.5 mL of 1X assay buffer and vortexed. The cells were then analyzed by flow cytometer.
as §5
(In general: Flow cytometry measures light scatter and fluorescence of single cells or particles in a stream.)

Data set [3] deals with L929 (mouse fibroblast cell line). Kind of data set: MTT cytotoxicity assay on L929 healthy cells. To be noted: mean ± SD. It is filed as cell-based. The procedure:
as §1, §2, §3, §4

Data set [4] relates to A549 cells. Kind of data set: Annexin V-FITC/propidium iodide apoptosis detection by flow cytometry. It is filed as cell-based, human. The following applies: IC50 dose, 24 h. The procedure: To determine whether the antiproliferative effects of the compounds on the A549 cell line proceed through the apoptotic or necrotic pathway, the assay was performed with Annexin V-FITC/propidium iodide dyes in a flow cytometry device. […] At least 10,000 cells were analyzed, and quadrant analysis was performed. The results are presented as early apoptotic cells, late apoptotic cells, viable cells, and necrotic cells in Table 3, and as a diagram in Figure 1. In control cells, the number of viable cells was 92.04%, necrotic cells were 1.16%, early apoptotic cells were 3.43%, and late apoptotic cells were 3.28%. […] Among the compounds, 2m was the most apoptosis-inducing compound, with 14.99% early apoptotic and 10.63% late apoptotic cell percentages. […] This compound was followed by compound 2c with a 13.79% early apoptotic cells and 4.03% late apoptotic cells. Among the compounds, compound 2o induced early apoptosis the least (1.87%) and necrosis the most (3.10%). […] Nonapoptotic cell death methods, such as necroptosis and pyroptosis, can be considered for the aforementioned compounds.
The compounds were treated with A549 cells at IC50 doses, and early and late apoptosis, necrosis, and viable cell ratios were determined as percentages. Cells were seeded at 37 °C in humidified air containing 5% CO2 with 10^5 cells/plate in each well. A549 cells were collected, washed twice with ice-cold PBS, and resuspended in 100 μL of binding buffer. Five μL (5 μg/mL) of Annexin V-FITC and PI were added to the cells and incubated for 15 min in the dark at room temperature (20–25 °C). Then, 400 μL of binding buffer was added to the mixture samples and analyzed on a flow cytometer. Quadrant analyses were also presented.[41] Compounds 2a, 2b, 2c, 2j, 2m, and 2o, with a satisfactory cytotoxic profile, were examined via flow cytometry to assess the apoptosis/necrosis cell ratio using previously published procedures.[42]
as §5

This note sets out measurements from PMC12059926, “Development and Biological Assessment of Thiazole-Based Pyridines for Targeted Therapy in Lung Cancer” (ACS Omega, 2025).

What is called inhibition is the drop in the measured response relative to a control, in per cent. Low readings indicate little suppression, high ones strong suppression. Broadly, the IC50 is the midpoint of a concentration-inhibition curve. Low readings indicate inhibition by little substance, high ones a need for much substance.

Each structure is given as a SMILES string. ≈ marks a conversion by molar mass, not a printed value.

T1 sequence (P14780 107-444 limits assumed): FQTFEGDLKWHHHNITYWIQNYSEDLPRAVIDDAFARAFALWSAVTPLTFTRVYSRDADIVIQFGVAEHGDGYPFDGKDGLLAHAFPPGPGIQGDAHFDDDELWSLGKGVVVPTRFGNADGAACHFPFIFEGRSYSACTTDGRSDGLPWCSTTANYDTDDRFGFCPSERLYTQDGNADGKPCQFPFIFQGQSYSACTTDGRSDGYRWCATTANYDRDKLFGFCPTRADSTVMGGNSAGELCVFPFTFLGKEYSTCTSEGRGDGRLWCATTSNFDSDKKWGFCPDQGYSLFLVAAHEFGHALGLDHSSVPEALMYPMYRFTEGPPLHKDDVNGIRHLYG

`C(=NNc1nc(-c2ccc(-c3ccccc3)cc2)cs1)c1ccccn1` [Compound 2c, 4-([1,1’-Biphenyl]-4-yl)-2-(2-(pyridin-2-ylmethylene)hydrazinyl)thiazole] gave an inhibition at 100 µM against MMP-9 enzyme of 23.1 ± 2.08%. Also, in data set [1], 10.1 ± 0.38 mg/L (≈ 28.4 µM) corresponded to half-maximal inhibition (IC50). Besides, in the data set on caspase-3 in A549 cells, the “% Caspase-3 negative cells” value came out at 91.76% and the “% Caspase-3 positive cells” value is 5.95%. Moreover, the “% Mitochondrial membrane polarized cells” value in the data set on A549 cells [2] is 79.61%. The IC50 in data set [3] stood at 125 ± 0.64 mg/L (≈ 351 µM). Further, in the data set with A549 cells [4], the Q1-LL viable cells came to 81.54%, the “Q1-LR early apoptotic cells” value amounted to 13.79%, the Q1-UL necrotic cells is 0.64% and the “Q1-UR late apoptotic cells” value was found to be 4.03%.

The molecule `CS(=O)(=O)c1ccc(-c2csc(NN=Cc3cccnc3)n2)cc1` [Compound 2g, 4-(4-(Methylsulfonyl)phenyl)-2-(2-(pyridin-3-ylmethylene)hydrazinyl)thiazole] returned an inhibition at 100 µM at MMP-9 enzyme of 8.63 ± 1.32%. Further, the concentration for half-maximal inhibition (IC50) in data set [1] was 8.4 ± 0.34 mg/L (≈ 23.4 µM). In the data set on caspase-3 in A549 cells, the “% Caspase-3 negative cells” value amounted to 73.16% and the “% Caspase-3 positive cells” value is on record as 0.38%. Further, the “% Mitochondrial membrane polarized cells” value with A549 cells [2] worked out at 76.68%. The same molecule had a concentration for half-maximal inhibition (IC50) in data set [3] of 56.4 ± 0.59 mg/L (≈ 157 µM). In the data set with A549 cells [4], the Q1-LL viable cells was determined as 88.98%, the “Q1-LR early apoptotic cells” value worked out at 7.20%, the Q1-UL necrotic cells turned out to be 0.98% and the “Q1-UR late apoptotic cells” value was determined as 2.84%.

Take `C(=NNc1nc(-c2ccc(-c3ccccc3)cc2)cs1)c1ccncc1` [Compound 2m, 4-([1,1’-Biphenyl]-4-Yl)-2-(2-(pyridin-4-ylmethylene)hydrazinyl)thiazole]: testing at 100 µM against MMP-9 enzyme gave an inhibition of 9.4 ± 1.22%. Also, the IC50 in data set [1] turned out to be 12.1 ± 0.43 mg/L (≈ 33.8 µM). In the data set on caspase-3 in A549 cells, the “% Caspase-3 negative cells” value is listed as 69.82% and the “% Caspase-3 positive cells” value amounted to 0.86%. For the same molecule, the “% Mitochondrial membrane polarized cells” value with A549 cells [2] amounted to 75.72%. Besides, in data set [3], the 50% inhibitory concentration (IC50) was determined as 31.2 ± 0.55 mg/L (≈ 87.7 µM). For the same molecule, in the data set with A549 cells [4], the Q1-LL viable cells is 73.32%, the “Q1-LR early apoptotic cells” value came to 14.99%, the Q1-UL necrotic cells is reported as 1.07% and the “Q1-UR late apoptotic cells” value amounted to 10.63%.
